In publication PMC11412489, “Coumarin derivatives as new anti-biofilm agents against Staphylococcus aureus” (PLOS ONE, 2024):
Where two headings read alike, the source gives them in different places.

Assays:
Type in all cases: cell-based, Staphylococcus aureus
[1] = test system: S. aureus; assay: Antibacterial activity (bacterial growth inhibition); settings: at 100 μg/mL; for inhibition at 100 µg/mL: Staphylococcus aureus, read-out: Antibacterial Activity (% Inhibition ± SEM)
[2] = test system: biofilm cells of the S. aureus strain (ATCC 6538); assay: Biofilm analysis by fluorescence microscopy (SYTO-9/PI); settings: SYTO-9/PI staining, S. aureus ATCC 6538, 24 hours
Protocol: Briefly, 1×10^7 cells were loaded in 96-well plate, and treated with active compounds. Plate was sealed, and incubated for 24 hours at 37°C. Following incubation, plate was washed with sterile distilled water, and cells were stained with […] SYTO-9 and 5 μM PI, for 30 minutes in dark at room temperature. After incubation, the wells were washed again, and air dried. Images were taken, and then visualized by Nikon Eclipse TE2000, USA [23]. Propidium Iodide (PI) staining indicates membrane integrity, as it can only pass through compromised membranes of non-viable cells, giving red fluorescence. On the contrary, Syto-9 can pass through all cells despite of their membrane integrity, and binds to DNA/RNA by emitting green fluorescence.

[3] = test system: S. aureus biofilm; assay: Atomic force microscopy analysis of biofilm disruption; settings: compared to control S. aureus cells, 24 hours
Protocol: The size and structure of disrupted biofilm was analyzed. Briefly, a pure single colony of S. aureus was inoculated in BHI broth and grown for 18–24 hours at 37°C. Following incubation, the cells were diluted in BHI broth, and density was adjusted to 1×10^7 before loading on a sterile silicon chip placed in 24-well plate, then silicon chips were treated with active compounds. The plate was then sealed, and placed in an incubator for 24 hours at 37°C. After incubation, the treated silicon chips were washed with autoclaved distilled water thrice, air dried, and the samples were analyzed by atomic force microscope (Agilent Technologies, USA).

[4] = test system: biofilm of S. aureus ATCC 6538; assay: 96-well plate crystal violet assay for biofilm inhibition; settings: for inhibition at 3.125 µg/mL / inhibition at 6.25 µg/mL / inhibition at 12.5 µg/mL / inhibition at 25 µg/mL / inhibition at 50 µg/mL / inhibition at 100 µg/mL: Staphylococcus aureus, ATCC6538
Protocol: The quantitative determination of biofilm inhibition was carried out by the crystal violet assay on a sterile 96-well plate with slight modifications. The glycerol stock of S. aureus was revived overnight at 37°C at 80 rpm. The overnight culture was then diluted 100 folds in fresh BHI broth, supplemented with 0.25% glucose. The cell density was adjusted to 1×10^7 and 195μL of the cell suspension was added in 96-well plate. […] Following that, the plate was washed with sterile distilled water in order to decant the non-adherent cells, and media. The plate was then dried at 60°C for 1 hour, and 200 μL of 0.1% (w/v) crystal violet was added to stain biofilm for 20 minutes. The plate was washed again, air dried, and dispensed 30% (v/v) acetic acid in each well to dissolve the biofilm. The inhibition of biofilm formation was analyzed by measuring the absorbance at 595 nm using the microplate reader (Multiskan Sky, Thermo Scientific, USA). The percent inhibition of biofilm formation was calculated via the following formula: 100−ƛTreated−ƛBlank/ƛControl−ƛBlank×100 Whereƛ=absorbance

[5] = S. aureus ATCC 6538, replicate 1, read-out: % Inhibition 1
[6] = S. aureus ATCC 6538, replicate 2, read-out: % Inhibition 2
[7] = S. aureus ATCC 6538, replicate 3, read-out: % Inhibition 3
[8] = S. aureus ATCC 6538, read-out: Mean % Inhibition
[9] = 100 µg/mL, S. aureus ATCC 6538, replicate 1, read-out: % Inhibition 1
[10] = 100 µg/mL, S. aureus ATCC 6538, replicate 2, read-out: % Inhibition 2
[11] = 100 µg/mL, S. aureus ATCC 6538, replicate 3, read-out: % Inhibition 3
[12] = 100 µg/mL, S. aureus ATCC 6538, read-out: Mean % Inhibition
[13] = at 100 μg/mL, biofilm of S. aureus, 24 hours, read-out: Antibiofilm Activity (% Inhibition ± SEM)
[14] = at 100 μg/mL, biofilm of S. aureus, 24 hours

Row | Compound | inhibition at 100 µg/mL [1] [%] | Antibacterial Activity (% Inhibition ± SEM) [1] | Biofilm disruption seen by fluorescence microscopy [2] | Biofilm disruption seen by AFM [3] | inhibition at 3.125 µg/mL [4, 5] [%] | inhibition at 3.125 µg/mL [4, 6] [%] | inhibition at 3.125 µg/mL [4, 7] [%] | inhibition at 3.125 µg/mL [4, 8] [%] | inhibition at 6.25 µg/mL [4, 5] [%] | inhibition at 6.25 µg/mL [4, 6] [%] | inhibition at 6.25 µg/mL [4, 7] [%] | inhibition at 6.25 µg/mL [4, 8] [%] | inhibition at 12.5 µg/mL [4, 5] [%] | inhibition at 12.5 µg/mL [4, 6] [%] | inhibition at 12.5 µg/mL [4, 7] [%] | inhibition at 12.5 µg/mL [4, 8] [%] | inhibition at 25 µg/mL [4, 5] [%] | inhibition at 25 µg/mL [4, 6] [%] | inhibition at 25 µg/mL [4, 7] [%] | inhibition at 25 µg/mL [4, 8] [%] | further results
1 | C/C(=N\Nc1nc(-c2ccc(Br)cc2)cs1)c1cc2ccccc2oc1=O [Compound 10, (E)-3-(1-(2-(4-(4-Bromophenyl)thiazol-2-yl)hydrazono)ethyl)-2H-chromen-2-one] | 18 ± 3.73 | low antibacterial effect | Disruption on the surface of biofilm | Disrupted biofilm surfaces | 1.98 | 1.44 | 1.54 | 1.65 | 5.34 | 4.99 | 5.53 | 5.29 | 7.56 | 7.29 | 7.21 | 7.35 | 2.34 | 2.21 | 2.09 | 2.21 | inhibition at 50 µg/mL [4, 5]: 39.5%; inhibition at 50 µg/mL [4, 6]: 39.8%; inhibition at 50 µg/mL [4, 7]: 39.8%; inhibition at 50 µg/mL [4, 8]: 39.7%; inhibition at 100 µg/mL [4, 9]: 69.4%; inhibition at 100 µg/mL [4, 10]: 69.5%; inhibition at 100 µg/mL [4, 11]: 68.9%; inhibition at 100 µg/mL [4, 12]: 69.3%; inhibition at 100 µg/mL [4, 13]: 69 ± 9.34%; Antibiofilm Activity (% Inhibition ± SEM) [4, 14]: high potential to inhibit the biofilms
2 | Cc1ccc2oc(=O)c(/C=N/Nc3nc(-c4ccc([N+](=O)[O-])cc4)cs3)c(Cl)c2c1 [Compound 4, (E)-4-Chloro-6-methyl-3-((2-(4-(4-nitrophenyl)thiazol-2-yl)hydrazono)methyl)-2H-chromen-2-one] | 21 ± 4.51 | low antibacterial effect | mild to extensive biofilm disruption and degradation | disrupt and degrade biofilm to varying degrees | 2.92 | 1.79 | 3.04 | 2.58 | 7.04 | 8.05 | 9.02 | 8.04 | 6.69 | 5.79 | 5.68 | 6.05 | 29.1 | 30.1 | 28.1 | 29.1 | inhibition at 50 µg/mL [4, 5]: 66%; inhibition at 50 µg/mL [4, 6]: 67%; inhibition at 50 µg/mL [4, 7]: 66.1%; inhibition at 50 µg/mL [4, 8]: 66.4%; inhibition at 100 µg/mL [4, 9]: 86.8%; inhibition at 100 µg/mL [4, 10]: 84.3%; inhibition at 100 µg/mL [4, 11]: 86.6%; inhibition at 100 µg/mL [4, 12]: 85.9%; inhibition at 100 µg/mL [4, 13]: 90 ± 9.3%; Antibiofilm Activity (% Inhibition ± SEM) [4, 14]: high potential to inhibit the biofilms
